# Data published in ChEMBL document CHEMBL4359892, “Discovery of novel indolylarylsulfones as potent HIV-1 NNRTIs via structure-guided scaffold morphing” (Eur J Med Chem, 2019).
# What was measured:
# [1] = test system: Human immunodeficiency virus 1; test: Antiviral activity against HIV-1 3B infected in human MT4 cells assessed as reduction in virus-induced cytopathic effect incubated for 5 days by MTT assay; type: functional, organism-based; conditions: Human immunodeficiency virus 1, 3B, MT4, 120 h
# [2] = test system: Human immunodeficiency virus 1; test: Antiviral activity against drug resistant HIV-1 RES056 harboring reverse transcriptase K103N/Y181C double mutant infected in human MT4 cells assessed as reduction in virus-induced cytopathic effect incubated for 5 days by MTT assay; type: functional, organism-based; conditions: Human immunodeficiency virus 1, RES056, MT4, 120 h
# [3] = Cytotoxicity against human MT4 cells assessed as reduction in cell viability incubated for 5 days by MTT assay; type: cell-based
# [4] = Selectivity index, ratio of CC50 for human MT4 cells to EC50 for antiviral activity against HIV IIIB; type: toxicity; conditions: read-out: Ratio CC50/EC50
# [5] = Selectivity index, ratio of CC50 for human MT4 cells to EC50 for antiviral activity against HIV RES056; type: toxicity; conditions: read-out: Ratio CC50/EC50
# [6] = test system: Human immunodeficiency virus 1; test: Antiviral activity against drug resistant HIV-1 harboring reverse transcriptase E138K mutant infected in human MT4 cells assessed as reduction in virus-induced cytopathic effect incubated for 5 days by MTT assay; type: functional, organism-based; conditions: Human immunodeficiency virus 1, MT4, 120 h
# [7] = test system: Human immunodeficiency virus 1; test: Antiviral activity against drug resistant HIV-1 harboring reverse transcriptase L100I mutant infected in human MT4 cells assessed as reduction in virus-induced cytopathic effect incubated for 5 days by MTT assay; type: functional, organism-based; conditions: Human immunodeficiency virus 1, MT4, 120 h
# [8] = test system: Human immunodeficiency virus 1; test: Antiviral activity against drug resistant HIV-1 harboring reverse transcriptase K103N mutant infected in human MT4 cells assessed as reduction in virus-induced cytopathic effect incubated for 5 days by MTT assay; type: functional, organism-based; conditions: Human immunodeficiency virus 1, MT4, 120 h
# [9] = test system: Human immunodeficiency virus 1; test: Antiviral activity against drug resistant HIV-1 harboring reverse transcriptase Y181C mutant infected in human MT4 cells assessed as reduction in virus-induced cytopathic effect incubated for 5 days by MTT assay; type: functional, organism-based; conditions: Human immunodeficiency virus 1, MT4, 120 h
# [10] = test system: Human immunodeficiency virus 1; test: Antiviral activity against drug resistant HIV-1 harboring reverse transcriptase Y188L mutant infected in human MT4 cells assessed as reduction in virus-induced cytopathic effect incubated for 5 days by MTT assay; type: functional, organism-based; conditions: Human immunodeficiency virus 1, MT4, 120 h
# [11] = test system: Human immunodeficiency virus 1; test: Antiviral activity against drug resistant HIV-1 harboring reverse transcriptase F227L/V106A double mutant infected in human MT4 cells assessed as reduction in virus-induced cytopathic effect incubated for 5 days by MTT assay; type: functional, organism-based; conditions: Human immunodeficiency virus 1, MT4, 120 h
# [12] = Sub-acute toxicity in Kunming mouse assessed as increase in alveolar interstitial thickening administered for 14 days measured on day 14 by HE-staining based assay; conditions: in vivo, 336 h
# [13] = Sub-acute toxicity in Kunming mouse assessed as increase in alveolar hemorrhage administered for 14 days measured on day 14 by HE-staining based assay; conditions: in vivo, 336 h
# [14] = Sub-acute toxicity in Kunming mouse assessed as increase in proximal convoluted tubule edema administered for 14 days measured on day 14 by HE-staining based assay; conditions: in vivo, 336 h
# [15] = test system: Human immunodeficiency virus 1; test: Potency index, ratio of EC50 of NVP to EC50 of compound for antiviral activity against HIV-1 3B infected in human MT4 cells assessed as reduction in virus-induced cytopathic effect incubated for 5 days by MTT assay; type: functional
# [16] = test system: Human immunodeficiency virus 1; test: Potency index, ratio of EC50 of AZT to EC50 of compound for antiviral activity against HIV-1 3B infected in human MT4 cells assessed as reduction in virus-induced cytopathic effect incubated for 5 days by MTT assay; type: functional
# [17] = biological target: Human immunodeficiency virus type 1 reverse transcriptase (Human immunodeficiency virus 1, UniProt Q72547); test: Inhibition of HIV1 reverse transcriptase assessed as inhibition of biotin-dUTP incorporation into template incubated for 1 hr by ELISA
# [18] = Acute toxicity in Kunming mouse assessed as effect on animal death at 1000 mg/kg, ig administered as single dose and observed every day for 1 week; type: organism-based; conditions: in vivo, po, 168 h
# [19] = Acute toxicity in Kunming mouse assessed as effect on lethargy at 1000 mg/kg, ig administered as single dose and observed every day for 1 week; type: organism-based; conditions: in vivo, po, 168 h
# [20] = Acute toxicity in Kunming mouse assessed as effect on clonic convulsion at 1000 mg/kg, ig administered as single dose and observed every day for 1 week; type: organism-based; conditions: in vivo, po, 168 h
# [21] = Acute toxicity in Kunming mouse assessed as effect on ruffled fur at 1000 mg/kg, ig administered as single dose and observed every day for 1 week; type: organism-based; conditions: in vivo, po, 168 h
# [22] = Acute toxicity in Kunming mouse assessed as effect on anorexia at 1000 mg/kg, ig administered as single dose and observed every day for 1 week; type: organism-based; conditions: in vivo, po, 168 h
# [23] = Acute toxicity in Kunming mouse assessed as effect on body weight gain at 1000 mg/kg, ig administered as single dose and observed every day for 1 week; type: organism-based; conditions: in vivo, po, 168 h
# [24] = Sub-acute toxicity in Kunming mouse assessed as effect on animal death at 50 mg/kg, po administered once every other day for 14 days; type: organism-based; conditions: in vivo, 336 h
# [25] = Sub-acute toxicity in Kunming mouse assessed as effect on lethargy at 50 mg/kg, po administered once every other day for 14 days; type: organism-based; conditions: in vivo, 336 h
# [26] = Sub-acute toxicity in Kunming mouse assessed as effect on clonic convulsion at 50 mg/kg, po administered once every other day for 14 days; type: organism-based; conditions: in vivo, 336 h
# [27] = Sub-acute toxicity in Kunming mouse assessed as effect on ruffled fur at 50 mg/kg, po administered once every other day for 14 days; type: organism-based; conditions: in vivo, 336 h
# [28] = Sub-acute toxicity in Kunming mouse assessed as effect on anorexia at 50 mg/kg, po administered once every other day for 14 days; type: organism-based; conditions: in vivo, 336 h
# [29] = Sub-acute toxicity in Kunming mouse assessed as increase in body weight at 50 mg/kg, po administered once every other day for 14 days; type: organism-based; conditions: in vivo, 336 h
# [30] = Sub-acute toxicity in Kunming mouse assessed as heart damage at 50 mg/kg, po administered once every other day for 14 days measured on day 14 by HE-staining based assay; type: organism-based; conditions: in vivo, 336 h
# [31] = Sub-acute toxicity in Kunming mouse assessed as liver damage at 50 mg/kg, po administered once every other day for 14 days measured on day 14 by HE-staining based assay; type: organism-based; conditions: in vivo, 336 h
# [32] = Sub-acute toxicity in Kunming mouse assessed as spleen damage at 50 mg/kg, po administered once every other day for 14 days measured on day 14 by HE-staining based assay; type: organism-based; conditions: in vivo, 336 h
# [33] = Sub-acute toxicity in Kunming mouse assessed as lungs damage at 50 mg/kg, po administered once every other day for 14 days measured on day 14 by HE-staining based assay; type: organism-based; conditions: in vivo, 336 h
# [34] = Sub-acute toxicity in Kunming mouse assessed as kidney damage at 50 mg/kg, po administered once every other day for 14 days measured on day 14 by HE-staining based assay; type: organism-based; conditions: in vivo, 336 h
# [35] = Acute toxicity in Kunming mouse assessed as effect on animal growth at 1000 mg/kg, ig administered as single dose and observed every day for 1 week; type: organism-based; conditions: in vivo, po, 168 h
# [36] = Sub-acute toxicity in Kunming mouse assessed as effect on animal growth at 50 mg/kg, po administered once every other day for 14 days; type: organism-based; conditions: in vivo, 336 h
Structure (SMILES),EC50 [1],EC50 [2],CC50 at 120 h [3],selectivity ratio [4],selectivity ratio [5],EC50 [6],EC50 [7],EC50 [8],EC50 [9],EC50 [10],EC50 [11],IC50 [17],further results
Cc1cc(C#N)cc(C)c1Oc1nc(Nc2ccc(C#N)cc2)nc(N)c1Br [ETRAVIRINE],5.8 nM,19 nM,> 4610 nM,> 792,> 238,6 nM,6.2 nM,2.9 nM,13 nM,23 nM,16 nM,,Activity [12]: Toxic; Activity [13]: Toxic; Activity [14]: Toxic
Cc1cc(C)cc(S(=O)(=O)c2c(C(=O)N[C@@H]3CCN(S(C)(=O)=O)C3)[nH]c3ccc(Cl)cc23)c1,4.7 nM,7660 nM,24000 nM,5190,3,,,,,,,,Ratio EC50 [15]: 55; Ratio EC50 [16]: 2.1
Cc1cc(C)cc(S(=O)(=O)c2c(C(=O)N[C@@H]3CCN(CC(N)=O)C3)[nH]c3ccc(Cl)cc23)c1,9.8 nM,> 31000 nM,31000 nM,3170,< 1,,,,,,,1490 nM,
Cc1cc(C)cc(S(=O)(=O)c2c(C(N)=O)[nH]c3ccc(Cl)cc23)c1,4.1 nM,> 13000 nM,13000 nM,3130,< 1,910 nM,17 nM,18 nM,27 nM,,9.6 nM,560 nM,
Cc1cc(C)cc(S(=O)(=O)c2c(C(=O)N[C@H]3CCN(S(C)(=O)=O)C3)[nH]c3ccc(Cl)cc23)c1,4.3 nM,> 29900 nM,29900 nM,7080,< 1,,,,,,,610 nM,Ratio EC50 [15]: 60; Ratio EC50 [16]: 2.3
Cc1cc(C)cc(S(=O)(=O)c2c(C(=O)NS(=O)(=O)c3ccccc3)[nH]c3ccc(Cl)cc23)c1,1730 nM,> 167000 nM,167000 nM,96,< 1,2010 nM,2170 nM,3230 nM,5330 nM,> 167000 nM,7400 nM,,
Cc1cc(C)cc(S(=O)(=O)c2c(C(=O)N[C@H]3CCN(CC(N)=O)C3)[nH]c3ccc(Cl)cc23)c1,9.8 nM,> 28100 nM,28100 nM,2880,< 1,14 nM,11 nM,25 nM,96 nM,310 nM,94 nM,,Activity [18]: Non-Toxic; Activity [19]: Non-Toxic; Activity [20]: Non-Toxic; Activity [21]: Non-Toxic; Activity [22]: Non-Toxic; Activity [23]: Non-Toxic; Activity [24]: Non-Toxic; Activity [25]: Non-Toxic; Activity [26]: Non-Toxic; Activity [27]: Non-Toxic; Activity [28]: Non-Toxic; Activity [29]: Non-Toxic; Activity [30]: Non-Toxic; Activity [31]: Non-Toxic; Activity [32]: Non-Toxic; Activity [33]: Non-Toxic; Activity [34]: Non-Toxic; Activity [35]: Non-Toxic; Activity [36]: Non-Toxic
Cc1cc(C)cc(S(=O)(=O)c2c(C(=O)NC3CN(Cc4n[nH]c(=O)n4C)C3)[nH]c3ccc(Cl)cc23)c1,110 nM,> 25200 nM,25200 nM,224,> 224,280 nM,104 nM,510 nM,1690 nM,2160 nM,1170 nM,,
